Results: US8735129B2, “Ginsenoside glycosidase derived from the genus Terrabacter, and use thereof” (Korea Research Institute of Bioscience and Biotechnology, priority 2009, dated 2014)
Read-outs that look alike come from different tables or passages of the source.

Key:
recombinant Bgl-gyp17 [1] = test: Enzymatic hydrolysis of PPD-type ginsenosides (TLC, HPLC, NMR); assay type: biochemical, Terrabacter ginsenosidimutans Gsoil 3082; settings: 0.2 U enzyme, 50 mM sodium phosphate pH 7.0, 37° C., hydrolysis of glucoses at C-3
Method: In order to analyze the specificity and selectivity of the recombinant enzyme for the hydrolysis of glucose at the C-3 and C-20 positions of PPD-type ginsenoside, ginsenoside Rb1, Rb2, Rc, Rd, and Rg3 were used as substrates. Each reaction mixture containing 0.2 U enzyme, 50 mM sodium phosphate buffer 0.1% (w/v) (pH 7.0), and the substrate was incubated at 37° C. Each sample was withdrawn at regular intervals, and an equal volume of water-saturated butanol was added to stop the reaction. The n-butanol fraction was evaporated to dryness, and any residual material was dissolved in CH3OH and then examined by TLC HPLC or NMR analysis.

tumor cells = settings: cited from earlier work
[2] = cited from earlier work
[3] = test system: F9 teratocarcinoma stem cells; settings: cited from earlier work
[4] = test system: B16 melanoma, MK-1 (stomach cancer cell), ovarian cancer cell (HRA); settings: MK-1, HRA; cited from earlier work
[5] = test system: refolded recombinant ginsenoside glycosidase; test: Reaction of refolded recombinant ginsenoside glycosidase with Rb1, TLC analysis; assay type: biochemical, Terrabacter ginsenosidimutans Gsoil 3082; settings: 1 mg/ml Rb1 solution in 50 mM sodium phosphate
Method: E. coli C41(DE3) containing an overexpressing plasmid was cultured in LB-ampicillin media at 37° C. when the OD value at 600 nm reached 0.6, and treated with 0.5 mM isopropyl-β-D-thiogalactopyranoside for 12 hours to induce protein expression. The bacterial cells were obtained by centrifugation at 4° C. and 5,000×g for 20 minutes. The cell pellet was resuspended in a solution (suspension) consisting of 50 mM sodium phosphate, 5 mM EDTA, and 1% Triton X-100 (pH 7.0) and subjected to ultrasonification. Since the recombinant ginsenoside glycosidase was expressed as an insoluble inclusion body, the sonicated lysate was centrifuged at 4° C. and 20,000×g for 30 minutes to obtain a pellet. The pellet was washed twice with a suspension solution in the absence of Triton X-100. The inclusion body was stirred in a solution containing 50 mM sodium phosphate, 5 mM EDTA, and 8 M urea (pH 8.0) at room temperature overnight for solubilization. After centrifugation (20,000×g, 30 minutes, 4° C.), the solubilized protein was diluted with 40 volumes of a refolding buffer containing 50 mM sodium phosphate, 5% glycerol, 0.05% polyethylene glycol and 0.5 mM sodium chloride at pH 7.0, and refolding of the protein was performed at 4° C. for 24 hours. […] Protein similarity was determined by 10% SDS-PAGE and Coomassie Blue staining. […]

recombinant Bgl-gyp17 [6] = test: Enzymatic hydrolysis of PPD-type ginsenosides (TLC, HPLC, NMR); assay type: biochemical, Terrabacter ginsenosidimutans Gsoil 3082; settings: 1 mg/ml ginsenoside Rb1, enzyme concentrations lower than 0.01 mg/ml
[7] = orally administered into the human body

Q: For `CC(C)=CCC[C@](C)(O[C@@H]1O[C@H](CO)[C@@H](O)[C@H](O)[C@H]1O)[C@H]1CC[C@]2(C)[C@@H]1[C@H](O)C[C@@H]1[C@@]3(C)CC[C@H](O[C@@H]4O[C@H](CO)[C@@H](O)[C@H](O)[C@H]4O)C(C)(C)[C@@H]3CC[C@]12C` [F2, ginsenoside F2], which “conversion of the ginsenoside by the enzyme (product)” value (“conversion … (product)” below) (recombinant Bgl-gyp17 [1]) is on record?
A: further converted into C—K (compound K) and C—K

Q: And the “effect on proliferation of tumor cells” value (tumor cells)?
A: suppressing the proliferation of tumor cells

Q: And the “effect on multi-drug resistance” value (tumor cells; tumor cells and bacteria)?
A: reversing multi-drug resistance

Q: What does the source list for `CC(C)=CCC[C@](C)(O[C@@H]1O[C@H](CO[C@@H]2O[C@@H](CO)[C@H](O)[C@H]2O)[C@@H](O)[C@H](O)[C@H]1O)[C@H]1CC[C@]2(C)[C@@H]1[C@H](O)C[C@@H]1[C@@]3(C)CC[C@H](O[C@@H]4O[C@H](CO)[C@@H](O)[C@H](O)[C@H]4O[C@@H]4O[C@H](CO)[C@@H](O)[C@H](O)[C@H]4O)C(C)(C)[C@@H]3CC[C@]12C` [Rc, ginsenoside Rc]?
A: conversion of the ginsenoside by the enzyme (product) (recombinant Bgl-gyp17 [1]): C-Mc (compound Mc) and C-Mc; in vivo absorption [2, 7]: very low in vivo absorption

Q: Which in vivo absorption [2, 7] does the source give for `CC(C)=CCC[C@](C)(O[C@@H]1O[C@H](CO)[C@@H](O)[C@H](O)[C@H]1O)[C@H]1CC[C@]2(C)[C@@H]1[C@H](O)C[C@@H]1[C@@]3(C)CC[C@H](O)C(C)(C)[C@@H]3[C@@H](O[C@@H]3O[C@H](CO)[C@@H](O)[C@H](O)[C@H]3O[C@@H]3O[C@@H](C)[C@H](O)[C@@H](O)[C@H]3O)C[C@]12C` [Re] here?
A: very low in vivo absorption

Q: Which in vivo absorption [2, 7] does the source give for `CC(C)=CCC[C@](C)(O[C@@H]1O[C@H](CO)[C@@H](O)[C@H](O)[C@H]1O)[C@H]1CC[C@]2(C)[C@@H]1[C@H](O)C[C@@H]1[C@@]3(C)CC[C@H](O)C(C)(C)[C@@H]3[C@@H](O[C@@H]3O[C@H](CO)[C@@H](O)[C@H](O)[C@H]3O)C[C@]12C` [Rg1] here?
A: very low in vivo absorption

Q: With `CC(C)=CCC[C@](C)(O)[C@H]1CC[C@]2(C)[C@@H]1[C@H](O)C[C@@H]1[C@@]3(C)CC[C@H](O)C(C)(C)[C@@H]3[C@@H](O[C@@H]3O[C@H](CO)[C@@H](O)[C@H](O)[C@H]3O)C[C@]12C` [Rh1] as the compound, how does the induction of differentiation [3] read?
A: strongly induce the differentiation

Q: And the “inhibitory effects on proliferation” value [4]?
A: strong inhibitory effects

Q: For `CC(C)=CCC[C@](C)(O)[C@H]1CC[C@]2(C)[C@@H]1[C@H](O)C[C@@H]1[C@@]3(C)CC[C@H](O[C@@H]4O[C@H](CO)[C@@H](O)[C@H](O)[C@H]4O)C(C)(C)[C@@H]3CC[C@]12C` [Rh2, ginsenoside Rh2], which “conversion … (product)” value (recombinant Bgl-gyp17 [1]) is on record?
A: converted Rh2 into PPD and PPD

Q: What about the induction of differentiation [3] of the same compound?
A: strongly induce the differentiation

Q: And the “inhibitory effects on proliferation” value [4]?
A: strong inhibitory effects

Q: Which results are given for `CC(C)=CCC[C@](C)(O[C@@H]1O[C@H](CO[C@@H]2O[C@H](CO)[C@@H](O)[C@H](O)[C@H]2O)[C@@H](O)[C@H](O)[C@H]1O)[C@H]1CC[C@]2(C)[C@@H]1[C@H](O)C[C@@H]1[C@@]3(C)CC[C@H](O[C@@H]4O[C@H](CO)[C@@H](O)[C@H](O)[C@H]4O[C@@H]4O[C@H](CO)[C@@H](O)[C@H](O)[C@H]4O)C(C)(C)[C@@H]3CC[C@]12C` [ginsenoside Rb1]?
A: conversion of the ginsenoside by the enzyme (product) (recombinant Bgl-gyp17 [1]): C—K; conversion of the ginsenoside (TLC) [5]: converted ginsenoside Rb1 into gyp XVII; hydrolysis of the ginsenoside (recombinant Bgl-gyp17 [6]): completely hydrolyzed to produce gyp XVII; in vivo absorption ([2]; in vivo, po): very low in vivo absorption

Q: For `CC(C)=CCC[C@](C)(O[C@@H]1O[C@H](CO[C@@H]2OC[C@H](O)[C@H](O)[C@H]2O)[C@@H](O)[C@H](O)[C@H]1O)[C@H]1CC[C@]2(C)[C@@H]1[C@H](O)C[C@@H]1[C@@]3(C)CC[C@H](O[C@@H]4O[C@H](CO)[C@@H](O)[C@H](O)[C@H]4O[C@@H]4O[C@H](CO)[C@@H](O)[C@H](O)[C@H]4O)C(C)(C)[C@@H]3CC[C@]12C` [ginsenoside Rb2], which “conversion … (product)” value (recombinant Bgl-gyp17 [1]) is on record?
A: C—Y (compound Y)

Q: What about the “conversion … (product)” value (recombinant Bgl-gyp17 [1]; listed as Rb2) of the same compound?
A: C—Y

Q: And the in vivo absorption ([2]; in vivo, po)?
A: very low in vivo absorption
